From ChEMBL document CHEMBL1151839, “Phosphorothioate analogs of m7GTP are enzymatically stable inhibitors of cap-dependent translation” (Bioorg Med Chem Lett, 2009)

Columns and labels:
[1] = Stability in presence of human DcpS assessed as complete degradation at 40 uM by HPLC-based assay; assay type: ADME
[2] = biological target: T1, Eukaryotic translation initiation factor 4E (Oryctolagus cuniculus, UniProt P29338); assay: Inhibition of eukaryotic initiation factor 4E in micrococcal nuclease-pretreated rabbit reticulocyte lysate assessed as inhibition of m7,3'-O-GpppG-capped 5'UTRbetaglob-LUC mRNA translation by luciferase-based luminometry
[3] = biological target: T1, Eukaryotic translation initiation factor 4E; assay: Inhibition of eukaryotic initiation factor 4E in micrococcal nuclease-pretreated rabbit reticulocyte lysate assessed as inhibition of m7,3'-O-GpppG-capped 5'UTRbetaglob-LUC mRNA translation treated 60 mins before mRNA addition by luciferase-based luminometry
[4] = biological target: T1, Eukaryotic translation initiation factor 4E; assay: Inhibition of eukaryotic initiation factor 4E in micrococcal nuclease-pretreated rabbit reticulocyte lysate assessed as inhibition of rabbit beta-[…] mRNA translation by [3H]leucine incorporation assay
[5] = biological target: Eukaryotic translation initiation factor 4E (Mus musculus) (UniProt P63073)
Chain of Eukaryotic translation initiation factor 4E (Mus musculus) (P63073 whole entry): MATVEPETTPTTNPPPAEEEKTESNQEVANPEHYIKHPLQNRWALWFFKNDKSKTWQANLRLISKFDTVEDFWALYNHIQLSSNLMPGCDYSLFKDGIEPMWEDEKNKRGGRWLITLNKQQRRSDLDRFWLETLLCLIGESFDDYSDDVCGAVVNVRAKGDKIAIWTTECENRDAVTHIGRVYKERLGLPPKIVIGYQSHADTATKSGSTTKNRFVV
Description: Binding affinity to mouse eukaryotic initiation factor 4E expressed in Escherichia coli BL21(DE3) by fluorescence quenching titration method

T1 sequence (P29338 whole entry): as the sequence (P63073 whole entry) above, with T12P counted along it

Compound	Stability [1]	IC50 [2] [µM]	IC50 [3] [µM]	IC50 [4] [µM]	Ka [5] [µM⁻¹]
C[n+]1cn([C@@H]2O[C@H](CO[P@](=O)(S)OP(=O)(O)OP(=O)(O)OC[C@H]3O[C@@H](n4cnc5c(=O)[nH]c(N)nc54)[C@H](O)[C@@H]3O)[C@@H](O)[C@H]2O)c2nc(N)[n-]c(=O)c21	Stable	1.1	1.2	4.1	
C[n+]1cn([C@@H]2O[C@H](CO[P@@](=O)(S)OP(=O)(O)OP(=O)([O-])O)[C@@H](O)[C@H]2O)c2c1C(O)NC(N)=N2 (stereo not given in full)					190
C[n+]1cn([C@@H]2O[C@H](COP(=O)([O-])OP(=O)(O)OP(=O)(O)O)[C@@H](O)[C@H]2O)c2nc(N)[nH]c(=O)c21	Unstable				
C[n+]1cn([C@@H]2O[C@H](CO[P@](=O)(S)OP(=O)([O-])OP(=O)(O)O)[C@@H](O)[C@H]2O)c2nc(N)nc(O)c21	Stable	0.56	0.56		371

Next, values leading:

Stability [1]	IC50 [2] [µM]	IC50 [3] [µM]	IC50 [4] [µM]	Ka [5] [µM⁻¹]	Compound
Stable	3.8	2.1	12.1	10	C[n+]1cn([C@@H]2O[C@H](CO[P@@](=O)(S)OP(=O)([O-])OP(=O)(O)OC[C@H]3O[C@@H](n4cnc5c(=O)[nH]c(N)nc54)[C@H](O)[C@@H]3O)[C@@H](O)[C@H]2O)c2nc(N)nc(O)c21
				9.4	C[n+]1cn([C@@H]2O[C@H](COP(=O)(O)OP(=O)([O-])OP(=O)(O)OC[C@H]3O[C@@H](n4cnc5c(=O)[nH]c(N)nc54)[C@H](O)[C@@H]3O)[C@@H](O)[C@H]2O)c2nc(N)nc(O)c21
Unstable	8.3	< 20	17.1		C[n+]1cn([C@@H]2O[C@H](COP(=O)(O)OP(=O)([O-])OP(=O)(O)OC[C@H]3O[C@@H](n4cnc5c(=O)[nH]c(N)nc54)[C@H](O)[C@@H]3O)[C@@H](O)[C@H]2O)c2nc(N)[nH]c(=O)c21
